Like-named read-outs stand apart in the source and are kept apart here.
Tests used:
[1] = tested on: SARS-CoV-2 (USA-WA1/2020); details: read-out: antiviral EC50; comparison value for the Caco2-hACE2 result; ref 9b; cited from earlier work
HCoV-NL63 main protease = HCoV-NL63 main protease (Human coronavirus NL63, UniProt P0C6X5); test: biochemical
HCoV-HKU1 main protease = molecular target: T1, HCoV-HKU1 main protease (Human coronavirus HKU1, UniProt P0C6X2); test: biochemical
T1 sequence (P0C6X2 3335-3637 limits assumed): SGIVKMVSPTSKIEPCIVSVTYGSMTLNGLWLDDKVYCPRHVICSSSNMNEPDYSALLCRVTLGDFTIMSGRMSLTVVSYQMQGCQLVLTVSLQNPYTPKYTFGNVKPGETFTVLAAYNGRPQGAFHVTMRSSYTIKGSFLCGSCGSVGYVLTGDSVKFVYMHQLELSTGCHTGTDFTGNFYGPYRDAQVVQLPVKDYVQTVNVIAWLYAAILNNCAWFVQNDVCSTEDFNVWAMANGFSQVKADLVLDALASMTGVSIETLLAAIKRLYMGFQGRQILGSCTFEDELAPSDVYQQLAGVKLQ

HCoV-OC43 main protease = molecular target: T2, HCoV-OC43 main protease (Human coronavirus OC43, UniProt P0C6X6); test: biochemical
T2 sequence (P0C6X6 3247-3549 limits assumed): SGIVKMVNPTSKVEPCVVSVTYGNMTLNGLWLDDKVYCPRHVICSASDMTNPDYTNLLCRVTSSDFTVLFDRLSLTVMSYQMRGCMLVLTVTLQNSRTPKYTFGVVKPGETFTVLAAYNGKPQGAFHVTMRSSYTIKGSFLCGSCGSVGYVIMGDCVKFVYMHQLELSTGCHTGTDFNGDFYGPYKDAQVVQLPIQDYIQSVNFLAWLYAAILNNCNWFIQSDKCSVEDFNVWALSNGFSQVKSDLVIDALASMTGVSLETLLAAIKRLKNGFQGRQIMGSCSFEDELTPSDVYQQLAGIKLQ

SARS-CoV-2 Mpro [2] = molecular target: T3, SARS-CoV-2 Mpro (Severe acute respiratory syndrome coronavirus 2, UniProt P0DTD1); test: biochemical; type: biochemical
SARS-CoV main protease = SARS-CoV main protease (Severe acute respiratory syndrome coronavirus, UniProt P0C6X7); test: biochemical
[3] = tested on: SARS-CoV-2 (USA-WA1/2020); test: microbe, parasite or virus in culture; type: cell-based
SARS-CoV-2 Mpro [4] = molecular target: T3, SARS-CoV-2 Mpro; test: cell-based
MERS-CoV main protease = MERS-CoV main protease (Middle East respiratory syndrome-related coronavirus, UniProt K9N7C7); test: biochemical
MERS-CoV main protease, sequence (K9N7C7 3248-3553 limits assumed): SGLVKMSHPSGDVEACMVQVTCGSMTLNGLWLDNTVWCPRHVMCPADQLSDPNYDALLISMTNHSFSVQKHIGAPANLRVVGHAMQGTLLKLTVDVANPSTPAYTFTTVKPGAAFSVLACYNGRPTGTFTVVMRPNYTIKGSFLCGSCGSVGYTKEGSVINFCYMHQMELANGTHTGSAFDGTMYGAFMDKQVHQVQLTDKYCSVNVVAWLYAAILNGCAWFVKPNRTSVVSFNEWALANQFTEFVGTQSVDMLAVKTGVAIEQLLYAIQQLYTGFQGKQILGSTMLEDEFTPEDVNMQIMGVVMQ

HCoV-229E main protease = HCoV-229E main protease (Human coronavirus 229E, UniProt P0C6X1); test: biochemical
HCoV-229E main protease, sequence (P0C6X1 2966-3267): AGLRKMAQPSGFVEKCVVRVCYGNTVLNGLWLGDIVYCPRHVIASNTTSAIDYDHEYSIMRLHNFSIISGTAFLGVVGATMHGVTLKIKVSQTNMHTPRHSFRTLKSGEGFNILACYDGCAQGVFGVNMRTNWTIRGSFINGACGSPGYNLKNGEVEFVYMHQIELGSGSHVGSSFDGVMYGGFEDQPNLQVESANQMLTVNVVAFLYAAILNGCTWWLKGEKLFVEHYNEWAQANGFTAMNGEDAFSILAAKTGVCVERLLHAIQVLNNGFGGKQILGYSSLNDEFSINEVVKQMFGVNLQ

[5] = tested on: SARS-CoV-2 (USA-WA1/2020); type: cell-based

HCoV-NL63 main protease, sequence (P0C6X5 2940-3242 limits assumed): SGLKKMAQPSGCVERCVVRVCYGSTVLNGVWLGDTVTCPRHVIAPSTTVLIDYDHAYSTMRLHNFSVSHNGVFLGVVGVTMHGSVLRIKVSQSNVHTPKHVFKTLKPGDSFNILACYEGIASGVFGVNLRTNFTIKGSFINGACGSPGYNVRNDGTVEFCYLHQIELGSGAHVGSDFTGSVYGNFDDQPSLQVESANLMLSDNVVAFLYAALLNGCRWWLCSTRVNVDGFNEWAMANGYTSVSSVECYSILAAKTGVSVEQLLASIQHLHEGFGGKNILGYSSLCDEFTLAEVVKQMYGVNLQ

Compound	IC50 (HCoV-NL63 main protease)	IC50 (HCoV-HKU1 main protease)	IC50 (HCoV-OC43 main protease)	IC50 (SARS-CoV-2 Mpro [2])	IC50 (SARS-CoV main protease)	EC50 (SARS-CoV-2 Mpro [4])	IC50 (MERS-CoV main protease)	IC50 (HCoV-229E main protease)	IC50 (SARS-CoV-2 Mpro [2]; read-out: SARS-CoV-2 IC50)	other results
CC(C)C[C@H](NC(=O)OCc1ccccc1)C(=O)N[C@@H](CC1CCNC1=O)C(O)S(=O)(=O)O (stereo partly drawn) [GC376, reference compound]	–	–	–	–	–	–	–	–	–	EC50 [1]: 2900 nM; IC50 (HCoV-NL63 main protease; read-out: HCoV-NL63 IC50): 120 ± 20 nM; IC50 (HCoV-HKU1 main protease; read-out: HKU1 IC50): 12 ± 30 nM
O=C[C@H](C[C@@H]1CCNC1=O)NC(=O)[C@H](CC1CCCCC1)N1C[C@@H](NC(=O)OCc2ccccc2)CCC1=O [M-1-4, Benzyl ((S)-1-((S)-3-cyclohexyl-1-oxo-1-(((S)-1-oxo-3-((S)-2-oxopyrrolidin-3-yl)propan-2-yl)amino)propan-2-yl)-6-oxopiperidin-3-yl)carbamate]	9580 ± 1790 nM	1210 ± 200 nM	3670 ± 630 nM	950 ± 40 nM	730 ± 100 nM	18000 nM	> 20000 nM	610 ± 90 nM	–	EC50 ([3]; Severe acute respiratory syndrome coronavirus 2, read-out: antiviral EC50): 19000 nM
CC(C)C[C@@H](C(=O)N[C@@H](C[C@@H]1CCNC1=O)C(=O)C(=O)NC1CC1)N1C[C@@H](NC(=O)OCc2ccccc2)CCC1=O [M-2-5, Benzyl ((S)-1-((S)-1-(((S)-4-(cyclopropylamino)-3,4-dioxo-1-((S)-2-oxopyrrolidin-3-yl)butan-2-yl)amino)-4-methyl-1-oxopentan-2-yl)-6-oxopiperidin-3-yl) carbamate]	–	–	–	–	–	–	–	–	3580 nM	–
CC(C)C[C@@H](C(=O)N[C@@H](C[C@@H]1CCNC1=O)C(=O)C(=O)NC1CC1)N1C[C@@H](NC(=O)OCc2ccccc2)CC1=O [M-2-3, Benzyl ((S)-1-((S)-1-(((S)-4-(cyclopropylamino)-3,4-dioxo-1-((S)-2-oxopyrrolidin-3-yl)butan-2-yl)amino)-4-methyl-1-oxopentan-2-yl)-5-oxopyrrolidin-3-yl)carbamate]	830 ± 100 nM	390 ± 30 nM	120 ± 10 nM	1310 ± 100 nM	2260 ± 390 nM	–	8020 ± 2070 nM	690 ± 80 nM	–	–
O=C[C@H](C[C@@H]1CCNC1=O)NC(=O)[C@H](CC1CC1)N1C[C@@H](NC(=O)OCc2ccccc2)CCC1=O [M-1-6, Benzyl ((S)-1-((S)-3-cyclopropyl-1-oxo-1-(((S)-1-oxo-3-((S)-2-oxopyrrolidin-3-yl)propan-2-yl)amino)propan-2-yl)-6-oxopiperidin-3-yl)carbamate]	480 ± 60 nM	120 ± 20 nM	180 ± 10 nM	80 ± 10 nM	250 ± 20 nM	> 60000 nM	850 ± 210 nM	180 ± 20 nM	–	–
CC(C)C[C@@H](C(=O)N[C@H](C=O)C[C@@H]1CCNC1=O)N1C[C@@H](NC(=O)OCc2cc(F)cc(F)c2)CCC1=O [M-1-7, 3,5-difluorobenzyl ((S)-1-((S)-4-methyl-1-oxo-1-(((S)-1-oxo-3-((S)-2-oxopyrrolidin-3-yl)propan-2-yl)amino)pentan-2-yl)-6-oxopiperidin-3-yl)carbamate]	–	–	–	190 nM	–	27300 nM	–	–	–	–
O=C[C@H](C[C@@H]1CCNC1=O)NC(=O)[C@H](Cc1cccc(F)c1)N1C[C@@H](NC(=O)OCc2ccccc2)CCC1=O [M-1-5, Benzyl ((S)-1-((S)-3-(3-fluorophenyl)-1-oxo-1-(((S)-1-oxo-3-((S)-2-oxopyrrolidin-3-yl)propan-2-yl)amino)propan-2-yl)-6-oxopiperidin-3-yl)carbamate]	–	–	–	–	–	49600 nM	–	–	–	–
CC(C)C[C@@H](C(=O)N[C@H](C=O)C[C@@H]1CCNC1=O)N1C[C@@H](NC(=O)OCc2ccccc2)CCC1=O [M-1-3, Benzyl ((S)-1-((S)-4-methyl-1-oxo-1-(((S)-1-oxo-3-((S)-2-oxopyrrolidin-3-yl)propan-2-yl)amino)pentan-2-yl)-6-oxopiperidin-3-yl)carbamate]	890 ± 10 nM	33 ± 10 nM	710 ± 20 nM	80 ± 10 nM	160 ± 10 nM	> 60000 nM	410 ± 50 nM	62 ± 10 nM	–	antiviral activity [5]: not active; antiviral activity [3]: not active
CC(C)C[C@@H](C(=O)N[C@H](C=O)C[C@@H]1CCNC1=O)N1C[C@@H](NC(=O)OCc2ccccc2)CC1=O [M-1-1, Benzyl ((S)-1-((S)-4-methyl-1-oxo-1-(((S)-1-oxo-3-((S)-2-oxopyrrolidin-3-yl)propan-2-yl)amino)pentan-2-yl)-5-oxopyrrolidin-3-yl) carbamate]	–	–	–	–	–	–	–	–	510 nM	–
O=C(N[C@H]1CCC(=O)N([C@@H](CC2CCCCC2)C(=O)N[C@@H](C[C@@H]2CCNC2=O)C(=O)C(=O)NC2CC2)C1)OCc1ccccc1 [M-2-6, Benzyl ((S)-1-((S)-3-cyclohexyl-1-(((S)-4-(cyclopropylamino)-3,4-dioxo-1-((S)-2-oxopyrrolidin-3-yl)butan-2-yl)amino)-1-oxopropan-2-yl)-6-oxopiperidin-3-yl) carbamate]	–	–	–	–	–	–	–	–	4430 nM	–
O=C(N[C@H]1CCC(=O)N([C@@H](CC2CC2)C(=O)N[C@@H](C[C@@H]2CCNC2=O)C(=O)C(=O)NC2CC2)C1)OCc1ccccc1 [M-2-8, Benzyl ((S)-1-((S)-3-cyclopropyl-1-(((S)-4-(cyclopropylamino)-3,4-dioxo-1-((S)-2-oxopyrrolidin-3-yl)butan-2-yl)amino)-1-oxopropan-2-yl)-6-oxopiperidin-3-yl)carbamate]	10800 ± 2210 nM	2230 ± 460 nM	2600 ± 450 nM	2140 ± 90 nM	3880 ± 670 nM	–	> 20000 nM	5670 ± 490 nM	–	–
O=C(N[C@H]1CCC(=O)N([C@@H](Cc2cccc(F)c2)C(=O)N[C@@H](C[C@@H]2CCNC2=O)C(=O)C(=O)NC2CC2)C1)OCc1ccccc1 [M-2-7, Benzyl ((S)-1-((S)-1-(((S)-4-(cyclopropylamino)-3,4-dioxo-1-((S)-2-oxopyrrolidin-3-yl)butan-2-yl)amino)-3-(3-fluorophenyl)-1-oxopropan-2-yl)-6-oxopiperidin-3-yl) carbamate]	–	–	–	–	–	–	–	–	3990 nM	–

Reference: article PMC10330001 (Chemistry (Weinheim an der Bergstrasse, Germany), 2023)
